Data as given in US20200172491A1, “SUBSTITUTED 5-(HET-)ARYLPYRAZOLAMIDES AND SALTS THEREOF AND THEIR USE AS HERBICIDAL ACTIVE SUBSTANCES” (Bayer CropScience Aktiengesellschaft, priority 2017, published 2020).

Tests used:
Assay type in all cases: in vivo
[1] = tested on: Amaranthus retroflexus; assay: Post-emergence herbicidal action; details: 320 g/ha, rated after about 3 weeks, 100% = plants have died, 0% = like control plants
Method: (§1) Seeds of monocotyledonous and dicotyledonous weeds and crop plants were placed in sandy loam in plastic or wood-fiber pots, covered with soil and cultivated in a greenhouse under controlled growth conditions. 2 to 3 weeks after sowing, the test plants were treated at the one-leaf stage. The compounds of the invention, formulated in the form of wettable powders (WP) or as emulsion concentrates (EC), were then sprayed onto the green parts of the plants as aqueous suspension or emulsion with addition of 0.5% additive at a water application rate of 600 l/ha (converted). After the test plants had been kept in the greenhouse under optimum growth conditions for about 3 weeks, the activity of the preparations was rated visually in comparison to untreated controls. For example, 100% activity=the plants have died, 0% activity=like control plants. Tables B1 to B6 below show the effects of selected compounds of the general formula (I) according to Table A1 at an application rate of 320 g/ha on various harmful plants, which were obtained by the aforementioned experimental procedure.

[2] = tested on: Veronica persica; assay: Post-emergence herbicidal action; details: 320 g/ha, rated after about 3 weeks, 100% = plants have died, 0% = like control plants
Method: as §1

[3] = tested on: Viola tricolor; assay: Post-emergence herbicidal action; details: 320 g/ha, rated after about 3 weeks, 100% = plants have died, 0% = like control plants
Method: as §1

[4] = tested on: Stellaria media; assay: Post-emergence herbicidal action; details: 320 g/ha, rated after about 3 weeks, 100% = plants have died, 0% = like control plants
Method: as §1

[5] = tested on: Amaranthus retroflexus; assay: Pre-emergence herbicidal action; details: 320 g/ha, scored after about 3 weeks, 100% = plants have died, 0% = like control plants
Text: (§2) Seeds of monocotyledonous and dicotyledonous weed plants and crop plants were placed in plastic or wood-fiber pots and covered with soil. The compounds of the invention, formulated in the form of wettable powders (WP) or as emulsion concentrates (EC), were then applied to the surface of the covering soil as aqueous suspension or emulsion with addition of 0.5% additive at a water application rate equivalent to 600 l/ha. After the treatment, the pots were placed in a greenhouse and kept under good growth conditions for the test plants. After about 3 weeks, the effect of the preparations is scored visually in comparison with untreated controls as percentages. For example, 100% activity=the plants have died, 0% activity=like control plants. Tables B7 to B11 below show the effects of selected compounds of the general formula (I) according to Table A1 at an application rate of 320 g/ha on various harmful plants, which were obtained by the aforementioned experimental procedure.

[6] = tested on: Veronica persica; assay: Pre-emergence herbicidal action; details: 320 g/ha, scored after about 3 weeks, 100% = plants have died, 0% = like control plants
Text: as §2

[7] = tested on: Matricaria inodora; assay: Pre-emergence herbicidal action; details: 320 g/ha, scored after about 3 weeks, 100% = plants have died, 0% = like control plants
Text: as §2

[8] = tested on: Stellaria media; assay: Pre-emergence herbicidal action; details: 320 g/ha, scored after about 3 weeks, 100% = plants have died, 0% = like control plants
Text: as §2

[9] = tested on: Ipomoea purpurea; assay: Post-emergence herbicidal action; details: 320 g/ha, rated after about 3 weeks, 100% = plants have died, 0% = like control plants
Method: as §1

[10] = tested on: Matricaria inodora; assay: Post-emergence herbicidal action; details: 320 g/ha, rated after about 3 weeks, 100% = plants have died, 0% = like control plants
Method: as §1

[11] = tested on: Viola tricolor; assay: Pre-emergence herbicidal action; details: 320 g/ha, scored after about 3 weeks, 100% = plants have died, 0% = like control plants
Text: as §2

Compound | herbicidal activity on Amaranthus retroflexus (visual rating vs untreated controls) [1] [%] | herbicidal activity on Veronica persica (visual rating vs untreated controls) [2] [%] | herbicidal activity on Viola tricolor (visual rating vs untreated controls) [3] [%] | herbicidal activity on Stellaria media (visual rating vs untreated controls) [4] [%] | herbicidal activity on Amaranthus retroflexus (visual rating vs untreated controls) [5] [%] | herbicidal activity on Veronica persica (visual rating vs untreated controls) [6] [%] | herbicidal activity on Matricaria inodora (visual rating vs untreated controls) [7] [%] | herbicidal activity on Stellaria media (visual rating vs untreated controls) [8] [%] | herbicidal activity on Ipomoea purpurea (visual rating vs untreated controls) [9] [%] | herbicidal activity on Matricaria inodora (visual rating vs untreated controls) [10] [%] | herbicidal activity on Viola tricolor (visual rating vs untreated controls) [11] [%]
Cc1cccc(NC(=O)c2c(C)nn(C)c2-c2ccc(F)cc2Cl)c1 [I-022] | 100 | 100 | 100 | 100 | 100 | 100 | 100 | 100 |  |  | 
Cc1nn(C)c(-c2ccc(F)cc2Cl)c1C(=O)Nc1cccc(Cl)c1 [I-001] | 100 |  | 100 | 100 | 100 | 100 | 100 | 100 | 100 | 90 | 
Cc1cccc(NC(=O)c2c(C)nn(C)c2-c2ccc(F)cc2Cl)c1C [I-030] | 100 |  | 100 | 100 | 100 | 100 | 100 | 100 | 100 | 90 | 
Cc1nn(C)c(-c2ccc(F)cc2Cl)c1C(=O)Nc1ccccc1Cl [I-029] | 100 | 100 | 100 | 100 |  |  | 100 | 100 |  |  | 
Cc1nn(C)c(-c2cc(F)ccc2Cl)c1C(=O)Nc1cccc(Cl)c1 [I-004] | 100 | 100 | 100 | 100 | 100 |  | 90 | 80 |  |  | 80
Cc1nn(C)c(-c2ccc(F)cc2Cl)c1C(=O)Nc1cccc2c1C(C)OC2(C)C (centres unmarked) [I-019] | 100 | 100 | 100 | 80 | 100 |  | 100 | 100 |  |  | 100
Cc1nn(C)c(-c2ccc(F)cc2Cl)c1C(=O)Nc1cc(F)ccc1F [I-008] | 100 | 80 | 100 | 100 | 100 |  | 90 | 100 |  |  | 100
Cc1nn(C)c(-c2ccc(F)cc2Cl)c1C(=O)Nc1c(Cl)cccc1Cl [I-013] | 100 |  | 100 | 100 | 100 | 100 | 100 | 100 | 100 | 100 | 
Cc1ccc(Cl)cc1NC(=O)c1c(C)nn(C)c1-c1ccc(F)cc1Cl [I-009] | 100 |  | 100 | 100 | 100 | 100 | 100 | 100 | 100 | 100 | 
Cc1cccc(Cl)c1NC(=O)c1c(C)nn(C)c1-c1ccc(F)cc1Cl [I-028] | 100 |  | 100 | 100 | 100 | 100 | 100 | 100 | 100 | 100 | 
Cc1ccccc1NC(=O)c1c(C)nn(C)c1-c1ccc(F)cc1Cl [I-016] | 100 |  | 100 | 100 | 100 | 80 | 100 | 100 | 100 | 100 | 
